In patent publication US20230414735A1, “NEOANTIGENS AND METHODS OF THEIR USE” (priority 2016, published 2023):
Where no end group is shown, it is not given here.

target: HLA class I molecule; assay: HLA class I peptide binding affinity assay (inhibition of 125I-radiolabeled probe peptide binding to purified HLA); parameters: species or system human; conditions: Allele A11.01; read-out: Observed Affinity (IC50; (nM))
Protocol: Epstein-Barr virus (EBV)-transformed homozygous cell lines, fibroblasts, CIR, or 721.22 transfectants are used as sources of HLA class I molecules. […] HLA molecules are purified from lysates by affinity chromatography. The lysates are passed over a column of Sepharose CL-4B beads coupled to an appropriate antibody. […] A 1/25 volume of 2.0 M Tris, pH 6.8, is added to the eluate to reduce the pH to […]. Eluates are then concentrated by centrifugation in Centriprep 30 concentrators (Amicon, Beverly, MA). Protein content is evaluated by a BCA protein assay (Pierce Chemical Co., Rockford, IL) and confirmed by SDS-PAGE.
Following incubation, MHC-peptide complexes are separated from free peptide by gel filtration on 7.8 mm×15 cm TSK200 columns (TosoHaas 16215, Montgomeryville, PA). Because the large size of the radiolabeled peptide used for the DRB1*1501 (DR2w2(31) assay makes separation of bound from unbound peaks more difficult under these conditions, all DRB1*1501 (DR2w2(31) assays were performed using a 7.8 mm×30 cm TSK2000 column eluted at 0.6 mLs/min. The eluate from the TSK columns is passed through a Beckman 170 radioisotope detector, and radioactivity is plotted and integrated using a Hewlett-Packard 3396A integrator, and the fraction of peptide bound is determined.
Radiolabeled peptides are iodinated using the chloramine-T method. […] All subsequent inhibition and direct binding assays are performed using these HLA concentrations.
Since under these conditions [label]<[HLA] and IC50≥[HLA], the measured IC50 values are reasonable approximations of the true KD values. […] For database purposes, and inter-experiment comparisons, relative binding values are compiled. These values can subsequently be converted back into IC50 nM values by dividing the IC50 nM of the positive controls for inhibition by the relative binding of the peptide of interest.
HLA binding assays were used to evaluate either the affinity of interaction of a given epitope with a selected HLA molecule or the stability.
The measurements are plotted against the predicted affinity in FIG. 1.

IC50 [nM] | Molecule
129 | SLKKVPALK
15.8 | SAMTTSSSQK
9.8 | KISNWSLKK

Molecule | IC50 [nM]
AMTTSSSQK | 162

same assay, conditions: allele A01.01; read-out: Observed Affinity (IC50; (nM))

Molecule | IC50 [nM]
CLSFLSSWDY | 987
ILDTAGHEEY | 64.2
TTNAFSGEY | 4.4
YMANGSLLNY | 13.2
LSFLSSWDY | 52.9
GSNEVTTRY | 606
CC[C@H](C)[C@H](NC(=O)[C@H](CC(C)C)NC(=O)[C@H](CCC(N)=O)NC(=O)[C@@H](NC(=O)[C@@H](NC(=O)[C@H](CO)NC(=O)[C@@H](NC(=O)[C@H](CC(C)C)NC(=O)[C@@H](N)CS)[C@@H](C)O)[C@@H](C)O)C(C)C)C(=O)N[C@@H](CCSC)C(=O)O | 11000
YTTNAFSGEY | 10.5
ILDTAGLEEY | 8.6
VMSDTTYKIY | 376
LTSTVQLIM | 2890
MSDTTYKIY | 10.2
CSCC[C@H](N)C(=O)N[C@@H](C)C(=O)N[C@@H](CC(N)=O)C(=O)NCC(=O)N[C@@H](CO)C(=O)N[C@@H](CC(C)C)C(=O)N[C@@H](CC(C)C)C(=O)N[C@@H](CC(N)=O)C(=O)N[C@@H](Cc1ccc(O)cc1)C(=O)O | 439
ILDTAGREEY | 7
TGSNEVTTRY | 15500
CC[C@H](C)[C@H](N)C(=O)N[C@@H](CC(C)C)C(=O)N[C@@H](CC(=O)O)C(=O)N[C@H](C(=O)N[C@@H](C)C(=O)NCC(=O)N[C@@H](CCCCN)C(=O)N[C@@H](CCC(=O)O)C(=O)N[C@@H](CCC(=O)O)C(=O)N[C@@H](Cc1ccc(O)cc1)C(=O)O)[C@@H](C)O | 14.3

same assay, conditions: allele A02.01; read-out: Observed Affinity (IC50; (nM))

IC50 [nM] | Molecule
741 | NVVPLSDLLL
139 | ALMSAMTTS
4560 | FFFSVIFST
1710 | MSVCFFFFSV
39 | ALAPTLTHML
324 | FLSSWDYRRM
10700 | TIGGPTLVII
781 | AFSGEYIPTV
289 | KKLMLLRLNL
141 | ALEEKKGNYV
280 | KSLVRLSSCV
6420 | IANLLGACTI
42.9 | YLTKWPKFFL
1.3 | RLWHLLLQV
1130 | GMNWRPILT
2900 | NVVPLNDLL
4730 | VQWRSLGSL
4440 | YMANGSLLN
2080 | LLGRNSFEVC

IC50 [nM] | Molecule
1240 | LVRLSSCVPV
93.2 | FLLALWECS
50300 | LQEFDVQEAL [LQEFDVQEAL]
797 | PLYGLLLEML
670 | AQAGVQWRSL
5930 | QLIMQLMPFG
9 | ALWECSLPQA
10900 | LIVSRTLLLV
64.5 | YITAFFLLDI
3030 | GMNQRPILT
61.2 | FFFETKSCSV
3030 | NVVPLCDLL
503 | NSFEVHVCA
604 | ALQPLQPHA
2.8 | LLPEDTPPL
19.5 | ILIRKAMTV
26.5 | KQWSSVTSL
471 | ALFFFFFET
50.9 | RLWHLLLQVT

IC50 [nM] | Molecule
9760 | QTGVMICAYL
1090 | IIEYCFYGDL
3510 | LIMQLMPFG
29.9 | SLVRLSSCV
59 | ALAPTLTHM
7320 | IMSLWGLVS
1400 | KITEQEKDFL
3280 | FQNGKMALS [FQNGKMALS]
0.4 | FALCGFWQI
0.6 | KLFSCLSFLS
1210 | VRLSSCVPVA
3450 | ILMELMAGGD
6470 | PLSDLLLEML
7490 | ITAFFFCWI
2550 | VVPLSDLLL
1060 | SLYIVGFYG
323 | LLYITAFFLL
916 | NVVPLSDLL
78.7 | ITAFFLLDI

Second part, the molecule before the results:

Molecule | IC50 [nM]
RLSSCVPVAL [RLSSCVPVAL] | 54.2
TLQRSSLWCL | 118
FELLPIPPL | 553
NVVPLCDLLL | 1370
FELLSTPPL | 225
IIEFMTYGNL | 9700
AIQPVLWTT | 8.1
LATEKSRWS | 61000
VMSDTTYKI | 19.6
CC[C@H](C)[C@H](NC(=O)[C@@H]1CCCN1C(=O)[C@H](CC(C)C)NC(=O)[C@@H](N)CC(C)C)C(=O)N1CCC[C@H]1C(=O)N1CCC[C@H]1C(=O)N[C@@H](CC(C)C)C(=O)N[C@@H](CO)C(=O)N1CCC[C@H]1C(=O)N[C@@H](CO)C(=O)O | 449
CC(C)C[C@H](NC(=O)[C@H](CO)NC(=O)[C@H](CCCCN)NC(=O)[C@H](CC(C)C)NC(=O)[C@@H](NC(=O)[C@H](CO)NC(=O)[C@@H]1CCCN1C(=O)[C@H](CC(C)C)NC(=O)[C@@H](N)Cc1ccccc1)[C@@H](C)O)C(=O)O | 21
PLNDLLLEML | 12000
CC[C@H](C)[C@H](NC(=O)[C@H](CC(C)C)NC(=O)[C@H](CCC(N)=O)NC(=O)[C@@H](NC(=O)[C@@H](NC(=O)[C@H](CO)NC(=O)[C@@H](NC(=O)[C@H](CC(C)C)NC(=O)[C@@H](N)CS)[C@@H](C)O)[C@@H](C)O)C(C)C)C(=O)N[C@@H](CCSC)C(=O)O | 716
STVQLIMQL | 8540
LLQVTQTSFA | 677
IIIEFMTYG | 779
NVVPLNDLLL | 4190
VVPLCDLLL | 1200
LVVVGADGV | 1190

Molecule | IC50 [nM]
IVSRTLLLV | 12.7
LATEKSRWSG | 23300
LLSTPPLSPS | 1770
ILLPEDTPPL | 6.7
FVMSDTTYKI | 62.4
LQVTQTSFAL [LQVTQTSFAL] | 718
TQISSATEYL | 2640
CC[C@H](C)[C@H](N)C(=O)N[C@H](C(=O)N[C@H](C(=O)N[C@@H](CCC(=O)O)C(=O)N[C@@H](Cc1ccccc1)C(=O)N[C@@H](CCSC)C(=O)N[C@H](C(=O)N[C@@H](Cc1ccc(O)cc1)C(=O)NCC(=O)N[C@@H](CC(N)=O)C(=O)O)[C@@H](C)O)[C@@H](C)CC)[C@@H](C)CC | 1550
FKLFSCLSFL | 663
NVVPLYGLL | 10500
LLDILDTAGL | 716
HMNIANLLGA | 430
FILMELMAGG | 1580
GLSISCTTL | 114
YIIIEFMTYG | 186
MLTGPPARV | 10.6
QQQSDLQPPA | 646
QQSDLQPPA | 70
YLGNHMNIAN | 1340

same assay, conditions: allele B08.01; read-out: Observed Affinity (IC50; (nM))

Molecule | IC50 [nM]
FELLSTPPL | 3180
LATEKSRWS | 37000
LKKLRSPL | 0.6
CC(C)C[C@H](NC(=O)[C@H](CO)NC(=O)[C@H](CCCCN)NC(=O)[C@H](CC(C)C)NC(=O)[C@@H](NC(=O)[C@H](CO)NC(=O)[C@@H]1CCCN1C(=O)[C@H](CC(C)C)NC(=O)[C@@H](N)Cc1ccccc1)[C@@H](C)O)C(=O)O | 1970
LATEKSRWSG | 46600

system: HLA Class I molecules; assay: HLA class I binding stability assay (pMHC-I complex dissociation, 125I-labeled β2m, scintillation counts); parameters: species or system human; conditions: allele A02.01; 37° C.

Stability (T1/2 (h)) [h] | Molecule
0.3 | CC[C@H](C)[C@H](NC(=O)[C@@H](NC(=O)[C@H](CC(C)C)NC(=O)[C@@H](NC(=O)[C@@H]1CCCN1C(=O)[C@H](CCCNC(=N)N)NC(=O)[C@H](CCCNC(=N)N)NC(=O)[C@H](CC(N)=O)NC(=O)[C@H](CCSC)NC(=O)[C@@H](N)CO)[C@@H](C)CC)[C@@H](C)O)C(=O)O
3.8 | MNWRPILTI
0.5 | CC(C)C[C@H](NC(=O)[C@H](CO)NC(=O)[C@H](CC(N)=O)NC(=O)[C@H](CS)NC(=O)[C@H](CCC(=O)O)NC(=O)[C@H](Cc1c[nH]cn1)NC(=O)[C@H](CC(C)C)NC(=O)[C@@H](NC(=O)[C@@H](N)CCC(N)=O)C(C)C)C(=O)O
0.7 | CSCC[C@H](N)C(=O)N[C@@H](C)C(=O)N[C@@H](CC(C)C)C(=O)N[C@@H](CC(N)=O)C(=O)N[C@@H](CO)C(=O)N[C@@H](CCC(=O)O)C(=O)N[C@@H](C)C(=O)N[C@@H](CC(C)C)C(=O)N[C@@H](CO)C(=O)N[C@H](C(=O)O)C(C)C
0.3 | CSCC[C@H](NC(=O)[C@H](CC(C)C)NC(=O)[C@H](CO)NC(=O)[C@H](CC(C)C)NC(=O)[C@@H]1CCCN1C(=O)[C@H](CCC(N)=O)NC(=O)[C@H](CCSC)NC(=O)[C@H](CCC(N)=O)NC(=O)[C@@H](N)Cc1ccccc1)C(=O)O

The next lines start with the molecule.

Molecule | Stability (T1/2 (h)) [h]
CSCC[C@H](NC(=O)[C@H](CC(C)C)NC(=O)[C@@H](N)CCCCN)C(=O)N[C@@H](CC(C)C)C(=O)N[C@@H](CC(C)C)C(=O)N[C@@H](CCCNC(=N)N)C(=O)N[C@@H](CC(C)C)C(=O)N[C@@H](CC(N)=O)C(=O)N[C@@H](CC(C)C)C(=O)O | 16.9
CC(C)C[C@H](NC(=O)[C@H](CO)NC(=O)[C@H](CS)NC(=O)[C@H](CCC(=O)O)NC(=O)[C@H](Cc1c[nH]c2ccccc12)NC(=O)[C@H](CC(C)C)NC(=O)[C@H](C)NC(=O)[C@H](CC(C)C)NC(=O)[C@@H](N)CC(C)C)C(=O)O | 4

same assay, conditions: allele A02.01; pMHC-I dissociation at 37° C.

Stability (T1/2 (h)) [h] | Molecule
0.5 | CC[C@H](C)[C@H](N)C(=O)N[C@@H](CCSC)C(=O)N[C@@H](CCC(N)=O)C(=O)N[C@@H](CC(C)C)C(=O)N[C@@H](CCSC)C(=O)N1CCC[C@H]1C(=O)N[C@@H](Cc1ccccc1)C(=O)NCC(=O)N[C@@H](CS)C(=O)N[C@@H](CC(C)C)C(=O)O

same assay, conditions: allele A03.01; 37° C.

Stability (T1/2 (h)) [h] | Molecule
13.5 | KVSRENTSPK

same assay, conditions: allele B07.02; 37° C.

Stability (T1/2 (h)) [h] | Molecule
1.5 | CSCC[C@H](NC(=O)[C@H](CC(C)C)NC(=O)[C@@H](N)CCCCN)C(=O)N[C@@H](CC(C)C)C(=O)N[C@@H](CC(C)C)C(=O)N[C@@H](CCCNC(=N)N)C(=O)N[C@@H](CC(C)C)C(=O)N[C@@H](CC(N)=O)C(=O)N[C@@H](CC(C)C)C(=O)O
